Reference: US20060287233A1, “Method of use of antagonists of zonulin to prevent the loss of or to regenerate pancreatic cells” (priority 2005, published 2006)
Entries after “also recorded” stand apart in the source; their conditions may differ. Ends that are not written are not given here.

How the values were obtained:
[1] = tested on: rabbit ileum; assay: Tissue resistance (Rt) of rabbit ileum mounted in Ussing chambers
Experimental: Next, rabbit ileum mounted in Ussing chambers as described below, were exposed to 100 μg of FZI/O (SEQ ID NO:15), 100 μg of FZI/1 (SEQ ID NO:29), 1.0 μg of 6×His-ZOT (obtained as described in Example 1 of U.S. patent application Ser. No. 09/127,815, filed Aug. 3, 1998), 1.0 μg of zonulini (obtained as described in Example 3 of U.S. patent application Ser. No. 09/127,815, filed Aug. 3, 1998), or 1.0 μg of zonulinh (obtained as described in Example 3 of U.S. patent application Ser. No. 09/127,815, filed Aug. 3, 1998), alone; or pre-exposed for 20 min to 100 μg of FZI/O or FZI/1, at which time 1.0 μg of 6×His-ZOT, 1.0 μg of zonulini, or 1.0 μg of zonulinh was added. ΔRt was then calculated as Rt=PD/Isc where PD=potential difference and Isc=short circuit current.

[2] = tested on: BB/Wor rats; assay: Prevention of diabetes in BB/Wor rats, antagonist in drinking water; format: in vivo, rat; conditions: 10 μg/ml in drinking water, n=5
Experimental: Both groups were maintained on a standard diet of rat chow (Harlan Teklab Diet #7012). All food and water were previously autoclaved. Each day, daily water intake was measured and 100 ml of fresh water was given. The treated group received 10 μg/ml of the zonulin peptide antagonist (SEQ ID NO: 15) supplemented in the drinking water. The rats were housed in hepa-filter cages.
Diabetes in the rats was diagnosed as follows: The rats were weighed twice a week. Blood glucose was determined weekly using the OneTouch® glucose monitoring system (Johnson & Johnson). Each week, reagent strips for urinalysis were used to monitor glucose (Diastix®) and ketones (Ketositx®) (Bayer). Rats with a blood glucose >250 mg/dl were fasted overnight, and blood glucose levels >200 mg/dl were considered diabetic.
Following clinical presentation of diabetes, the rats were sacrificed as follows: the rats were anesthesized using ketamine anesthesia and a midline incision was made allowing access to the heart. An 18 G needle was placed into the heart and death occurred by exsanguinations. Then, zonulin assays were conducted as described above. […] According to Biomedical Research Models, Inc., 80% of diabetes prone rats present with diabetes by age 80 days.

[3] = tested on: BBDP rats; assay: Treatment of autoimmune diabetes in BBDP rats, therapy initiated after seroconversion; format: in vivo, rat
Experimental: A test group of 52-54 day old diabetes-prone rats were treated with a zonulin antagonist peptide AT1001 (SEQ ID NO:15) while an age matched control group was not treated. The antagonist was administered at this time because at 40 days these rats show an increase in zonulin levels and at 50 days autoimmune antibodies can be detected. Thus, treatment was started after […].
BBDP animals age 52-54 were days divided in two groups. Group 1 (n=20) received AT-1001 daily in drinking water+HCO3. Group 2 (n=10) received drinking water+HCO3. Animals were randomized to receive either placebo or treatment with the synthetic zonulin peptide inhibitor AT-1001 (SEQ ID:15) in their water supply in a blinded fashion during treatment arm T0. At the disease endpoint (fasting blood glucose>250 mg/dl), BBDP rats that developed T1D (60% incidence in placebo group, average age 110 days) were euthanized and blood and tissue samples collected. […] Serum zonulin and autoantibody levels were monitored at the beginning of the study and at its endpoint. Water intake was monitored daily, while weight gain and serum glucose levels were checked weekly. Rats with fasting blood glucose ≧250 mg/dl were considered diabetic and were sacrificed within 24 hours of reaching the diabetic status.

[4] = tested on: pancreatic islets of BBDP rats; assay: Histology and immunohistology of pancreata of BBDP rats; format: in vivo, rat; conditions: treated rats that did not develop T1D; listed as AT1001
Experimental: Samples of the pancreas were taken from animals that had been treated starting at day […] and examined. The results of the histological examination are shown in FIG. 9 and the results of the immunohistological examination are shown in FIG. 10.
To verify the identities of the cells observed in the histological analysis, immunohistological examination was conducted. Pancreata were sequentially stained with either anti-glucagon antibody, which is specific for glucon-producing […], or with anti-insulin antibodies, which is specific for insulin-producing β-cells. When untreated pancreas is stained with anti-insulin antibodies, no signal is detected. This is consistent with the destruction of β-cells in T1D. Staining of these cells with anti-glucagon antibodies identifies glucagon producing […]. Normal islets have a loaf-shaped structure with the outside of the islet containing […] and the inside of the islet containing β-cells. […] The structure of the islets was more normal as indicated by the staining pattern with anti-glucagon antibodies FIG. 10D.

Row | Substance | inhibitory effect on the Rt change induced by ZOT, zonulini and zonulinh ([1]; pre-exposure for 20 min to 100 μg peptide) | rats that developed diabetes by age 80 days [2] | treated rats that did not develop diabetes [2] | change in Rt as compared to the negative control ([1]; 100 μg peptide alone) | decrease of the effect of ZOT on Rt ([1]; pre-treatment for 20 min with 100 μg peptide, then 1.0 μg 6×His-ZOT) | decrease of the effect of zonulinh on Rt ([1]; pre-treatment for 20 min with 100 μg peptide, then 1.0 μg zonulinh) | decrease of the effect of zonulini on Rt ([1]; pre-treatment for 20 min with 100 μg peptide, then 1.0 μg zonulini) | animals that developed diabetes under continued treatment ([3]; continued treatment after 120 days, arm T1) | anti-glutamic acid decarboxylase (GAD) antibodies ([3]; following treatment) | average age of onset of T1D ([3]; treated group) | animals that progressed to T1D ([3]; treatment arm T0, in drinking water from age 52-54 days) | rats that developed diabetes ([3]; treatment arm T0, treated group n=20) | progression to T1D ([3]; up to age 205 days (150 days post-treatment)) | animals that developed diabetes after treatment was withdrawn (fraction) ([3]; withdrawal after 120 days) | onset of T1D after withdrawal of treatment ([3]; withdrawal at age 120 days, arm T1) | pancreas histology (haematoxylin and eosin) [4] | pancreatic islet immunohistology (insulin and glucagon staining) [4]
1 | FZI/1: second synthetic peptide: Gly in position 8, Val in position 12, Gln in position 13 changed to residues of zonulinb (Val, Gly, Arg) (VGVLGRPG; sythetic peptide) [reference compound] | completely ablated | – | – | – | – | – | – | – | – | – | – | – | – | – | – | – | –
2 | GGVLVQPG [FZI/O, synthetic octapeptide corresponding to amino acid residues 8-15 of human fetal zonulin] | – | 40% | 60% | 0.5% | 75% | 100% | 97% | none | significant reduction | 86.0 ± 10.3 days | 35% | 7 of 20 | significantly reduced | ⅓ | 33% | evidence of the regeneration of β-cells was observed; also recorded: either normal islet histology or islet showing signs of recovery from insulitis; also recorded: perivascular inflammation without insulitis | preserved islets with detectable insulin-producing beta cells; also recorded: islets that were either undamaged (C and D) or showed signs of recovery from an insulitis insult
